From US20260297081A1, “COMPOUNDS AND METHODS OF TREATING CANCERS” (Cullgen Inc., priority 2023, published 2026)

Assays:
Format in all cases: cell-based
Calu-1 cells = test: Anti-proliferation (viability) of NSCLC Calu-1 cells, 3 days (Table 7, FIG. 2B); conditions: Homo sapiens, 72 h; Calu-1 cells, 3 days, 10-point serial dilution; read-out: GI IC50 in Calu-1
Procedure, shortened: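 Viability after a 10-point dilution series of heterobifunctional compounds, with exposure of 6 days for ER+ breast T47D cells and 3 days for NSCLC Calu-1 cells.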

MCF7 cells = test: Anti-proliferation (viability) of MCF7 cells (Table 7, FIG. 2B); conditions: Homo sapiens, MCF7, MCF7 cells, 3-6 days, 10-point serial dilution; read-out: GI IC50 in MCF-7
CDK4 = CDK4 (Homo sapiens, UniProt P11802+Q16531); test: CDK4 percentage degradation in Calu-1 cells (Table 6); set-up: Cells that express cyclin D1-3 and CDK4/6 proteins were treated with heterobifunctional compounds; endogenous in cells; host or cells: Calu-1; conditions: 16 hours
Procedure, shortened: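 Calu-1 cells exposed to heterobifunctional compounds at 40 nM or 200 nM for 16 h. Cyclin D1 and CDK4 levels measured by Western blot of RIPA lysates (BCA-normalised loading), bands quantified by densitometry and expressed as percentage degradation.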

Chain of CDK4 (P11802 2-303 limits assumed): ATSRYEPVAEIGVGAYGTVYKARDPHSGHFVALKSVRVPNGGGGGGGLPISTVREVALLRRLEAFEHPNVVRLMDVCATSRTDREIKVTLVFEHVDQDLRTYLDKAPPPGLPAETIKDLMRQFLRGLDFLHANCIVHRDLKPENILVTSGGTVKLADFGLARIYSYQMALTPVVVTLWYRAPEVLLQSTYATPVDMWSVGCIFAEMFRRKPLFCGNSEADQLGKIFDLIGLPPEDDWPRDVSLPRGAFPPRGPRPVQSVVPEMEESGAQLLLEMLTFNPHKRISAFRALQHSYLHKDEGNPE
Chain of CDK4 (P24385 whole entry partner): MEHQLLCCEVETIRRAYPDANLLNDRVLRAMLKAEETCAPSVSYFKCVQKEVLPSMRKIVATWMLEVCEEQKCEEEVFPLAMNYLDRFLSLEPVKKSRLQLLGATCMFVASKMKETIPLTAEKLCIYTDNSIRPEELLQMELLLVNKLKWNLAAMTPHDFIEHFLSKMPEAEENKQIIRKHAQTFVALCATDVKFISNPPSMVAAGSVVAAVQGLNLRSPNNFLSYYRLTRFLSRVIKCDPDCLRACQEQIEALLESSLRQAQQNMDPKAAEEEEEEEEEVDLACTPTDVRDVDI
Chain of CDK4 (Q16531 2-1140 limits assumed): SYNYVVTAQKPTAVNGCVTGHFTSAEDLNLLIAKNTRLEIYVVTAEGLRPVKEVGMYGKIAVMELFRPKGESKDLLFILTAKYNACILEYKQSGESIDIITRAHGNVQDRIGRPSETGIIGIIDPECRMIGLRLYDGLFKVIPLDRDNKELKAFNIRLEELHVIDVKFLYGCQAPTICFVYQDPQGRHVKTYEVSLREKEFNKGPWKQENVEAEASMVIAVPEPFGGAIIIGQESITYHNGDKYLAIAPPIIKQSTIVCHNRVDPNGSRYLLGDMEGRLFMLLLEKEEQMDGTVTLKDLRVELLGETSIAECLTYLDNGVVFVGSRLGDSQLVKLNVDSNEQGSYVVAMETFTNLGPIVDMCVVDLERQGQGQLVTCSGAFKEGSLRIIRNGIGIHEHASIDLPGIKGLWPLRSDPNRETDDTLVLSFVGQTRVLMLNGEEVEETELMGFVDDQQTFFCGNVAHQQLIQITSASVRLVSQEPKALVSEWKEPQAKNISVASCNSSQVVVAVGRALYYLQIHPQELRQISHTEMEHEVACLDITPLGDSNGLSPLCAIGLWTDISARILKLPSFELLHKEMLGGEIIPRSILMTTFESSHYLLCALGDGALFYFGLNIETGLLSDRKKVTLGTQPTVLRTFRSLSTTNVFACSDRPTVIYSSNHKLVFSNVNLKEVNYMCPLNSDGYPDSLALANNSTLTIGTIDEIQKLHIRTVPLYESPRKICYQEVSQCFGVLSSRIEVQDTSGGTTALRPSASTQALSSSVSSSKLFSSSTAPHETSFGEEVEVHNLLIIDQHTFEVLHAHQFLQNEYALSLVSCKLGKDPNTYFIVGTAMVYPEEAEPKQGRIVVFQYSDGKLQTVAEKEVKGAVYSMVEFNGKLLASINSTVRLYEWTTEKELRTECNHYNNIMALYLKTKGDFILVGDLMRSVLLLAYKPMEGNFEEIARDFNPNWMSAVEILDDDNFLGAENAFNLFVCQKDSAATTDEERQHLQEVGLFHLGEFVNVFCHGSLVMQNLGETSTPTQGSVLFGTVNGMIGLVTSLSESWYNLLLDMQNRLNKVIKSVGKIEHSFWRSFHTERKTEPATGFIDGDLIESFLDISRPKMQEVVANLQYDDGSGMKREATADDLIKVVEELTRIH

Compound	IC50 (Calu-1 cells) [nM]	IC50 (MCF7 cells) [nM]	inhibition at 0.04 µM (CDK4; 40 nM) [%]	inhibition at 0.2 µM (CDK4; 200 nM) [%]
CC(=O)c1c(C)c2cnc(Nc3ccc(N4CCN(C5CCN(C(=O)[C@H]6CC[C@H](Nc7nc(NC(C)C)ccc7-c7nc8cc(N(C)C)ccc8[nH]7)CC6)C5)CC4)cn3)nc2n(C2CCCC2)c1=O (relative stereo) [CPD-540, trans-6-acetyl-8-cyclopentyl-2-((5-(4-(1-(4-((3-(5-(dimethylamino)-1H-benzo[d]imidazol-2-yl)-6-(isopropylamino)pyridin-2-yl)amino)cyclohexane-1-carbonyl)pyrrolidin-3-yl)piperazin-1-yl)pyridin-2-yl)amino)-5-methylpyrido[2,3-d]pyrimidin-7(8H)-one]	≥ 50	> 100	–	–
CC(=O)c1c(C)c2cnc(Nc3ccc(N4CCN(C5CCN(C(=O)[C@H]6CC[C@H](Nc7nc(NC(C)C)ccc7-c7nc8ccc(N(C)C)nc8[nH]7)CC6)C5)CC4)cn3)nc2n(C2CCCC2)c1=O (relative stereo) [CPD-546, trans-6-acetyl-8-cyclopentyl-2-((5-(4-(1-(4-((3-(5-(dimethylamino)-3H-imidazo[4,5-b]pyridin-2-yl)-6-(isopropylamino)pyridin-2-yl)amino)cyclohexane-1-carbonyl)pyrrolidin-3-yl)piperazin-1-yl)pyridin-2-yl)amino)-5-methylpyrido[2,3-d]pyrimidin-7(8H)-one]	≤ 10	< 50	–	–
CNc1ccc(C(=O)Nc2ccn(C)n2)c(NC2CC3(C2)CN(C(=O)CCN2CCN(c4ccc(Nc5ncc6c(C)c(C(C)=O)c(=O)n(C7CCCC7)c6n5)nc4)CC2)C3)n1 [CPD-144, 2-((2-(3-(4-(6-((6-acetyl-8-cyclopentyl-5-methyl-7-oxo-7,8-dihydropyrido[2,3-d]pyrimidin-2-yl)amino)pyridin-3-yl)piperazin-1-y)propanoyl)-2-azaspiro[3.3]heptan-6-yl)amino)-N-(1-methyl-1H-pyrazol-3-yl)-6-(methylamino)nicotinamide]	10 to 50	–	50 to 80	> 80
[2H]C([2H])([2H])Nc1ccc(C(=O)Nc2cccc(C)n2)c(NC2CCN(C(=O)CN3CCN(c4ccc(Nc5ncc6c(C)c(C(C)=O)c(=O)n(C7CCCC7)c6n5)nc4)CC3)CC2)n1 [CPD-270, 2-((1-(2-(4-(6-((6-acetyl-8-cyclopentyl-5-methyl-7-oxo-7,8-dihydropyrido[2,3-d]pyrimidin-2-yl)amino)pyridin-3-yl)piperazin-1-yl)acetyl)piperidin-4-yl)amino)-6-((methyl-d3)amino)-N-(6-methylpyridin-2-yl)nicotinamide]	≥ 50	> 100	–	–
CNc1ccc(C(=O)Nc2ccc(N(C)C)nn2)c(NC2CCC(CNC(=O)CN3CCN(c4ccc(Nc5ncc6c(C)c(C(C)=O)c(=O)n(C7CCCC7)c6n5)nc4)CC3)C2)n1 (stereo not shown) [CPD-271, 2-((3-((2-(4-(6-((6-acetyl-8-cyclopentyl-5-methyl-7-oxo-7,8-dihydropyrido[2,3-d]pyrimidin-2-yl)amino)pyridin-3-yl)piperazin-1-yl)acetamido)methyl)cyclopentyl)amino)-N-(6-(dimethylamino)pyridazin-3-yl)-6-(methylamino)nicotinamide]	≥ 50	> 100	–	–
CC(=O)c1c(C)c2cnc(Nc3ccc(N4CCN(CC(=O)NC5CC6(C5)CC(Nc5nc(NC(C)C)ccc5C(=O)Nc5ccc(N(C)C)nn5)C6)CC4)cn3)nc2n(C2CCCC2)c1=O (stereo not shown) [CPD-272, 2-((6-(2-(4-(6-((6-acetyl-8-cyclopentyl-5-methyl-7-oxo-7,8-dihydropyrido[2,3-d]pyrimidin-2-yl)amino)pyridin-3-yl)piperazin-1-yl)acetamido)spiro[3.3]heptan-2-yl)amino)-N-(6-(dimethylamino)pyridazin-3-yl)-6-(isopropylamino)nicotinamide]	≤ 10	< 50	–	–
[2H]C([2H])([2H])Nc1ccc(C(=O)Nc2ccc(N(C)C)nn2)c(NC2CC3(C2)CN(C(=O)CN2CCC4(CCN(Cc5ccc(Nc6ncc7c(C)c(C(C)=O)c(=O)n(C8CCCC8)c7n6)nc5)C4)C2)C3)n1 (stereo not shown) [CPD-519, 2-((2-(2-(7-((6-((6-acetyl-8-cyclopentyl-5-methyl-7-oxo-7,8-dihydropyrido[2,3-d]pyrimidin-2-yl)amino)pyridin-3-yl)methyl)-2,7-diazaspiro[4.4]nonan-2-yl)acetyl)-2-azaspiro[3.3]heptan-6-yl)amino)-N-(6-(dimethylamino)pyridazin-3-yl)-6-((methyl-d3)amino)nicotinamide]	≤ 10	–	–	–
[2H]C([2H])([2H])Nc1ccc(C(=O)Nc2cc3n(n2)CCC3)c(N[C@H]2CC[C@H](C(=O)N3CCC(N4CCN(c5ccc(Nc6ncc7c(C)c(C(C)=O)c(=O)n(C8CCCC8)c7n6)nc5)CC4)C3)CC2)n1 (stereo partly drawn) [CPD-521, 2-((trans-4-(3-(4-(6-((6-acetyl-8-cyclopentyl-5-methyl-7-oxo-7,8-dihydropyrido[2,3-d]pyrimidin-2-yl)amino)pyridin-3-yl)piperazin-1-yl)pyrrolidine-1-carbonyl)cyclohexyl)amino)-N-(5,6-dihydro-4H-pyrrolo[1,2-b]pyrazol-2-yl)-6-((methyl-d3)amino)nicotinamide]	10 to 50	–	–	–
COc1cccc(NC(=O)c2ccc(NC(C)C)nc2N[C@H]2CC[C@H](C(=O)N3CCC(N4CCN(c5ccc(Nc6ncc7c(C)c(C(C)=O)c(=O)n(C8CCCC8)c7n6)nc5)CC4)C3)CC2)n1 (stereo partly drawn) [CPD-522, 2-((trans-4-(3-(4-(6-((6-acetyl-8-cyclopentyl-5-methyl-7-oxo-7,8-dihydropyrido[2,3-d]pyrimidin-2-yl)amino)pyridin-3-yl)piperazin-1-yl)pyrrolidine-1-carbonyl)cyclohexyl)amino)-6-(isopropylamino)-N-(6-methoxypyridin-2-yl)nicotinamide]	≤ 10	–	–	–
[2H]C([2H])([2H])Nc1ccc(C(=O)Nc2cccc(OC)n2)c(N[C@H]2CC[C@H](C(=O)N3CCC(N4CCN(c5ccc(Nc6ncc7c(C)c(C(C)=O)c(=O)n(C8CCCC8)c7n6)nc5)CC4)C3)CC2)n1 (stereo partly drawn) [CPD-523, 2-((trans-4-(3-(4-(6-((6-acetyl-8-cyclopentyl-5-methyl-7-oxo-7,8-dihydropyrido[2,3-d]pyrimidin-2-yl)amino)pyridin-3-yl)piperazin-1-yl)pyrrolidine-1-carbonyl)cyclohexyl)amino)-N-(6-methoxypyridin-2-yl)-6-((methyl-d3)amino)nicotinamide]	≥ 50	–	–	–
[2H]C([2H])([2H])Nc1ccc(C(=O)Nc2cc3n(n2)CCC3)c(NC2CC3(C2)CN(C(=O)CC(N2CCN(c4ccc(Nc5ncc6c(C)c(C(C)=O)c(=O)n(C7CCCC7)c6n5)nc4)CC2)C(F)(F)F)C3)n1 (stereo not shown) [CPD-524, 2-((2-(3-(4-(6-((6-acetyl-8-cyclopentyl-5-methyl-7-oxo-7,8-dihydropyrido[2,3-d]pyrimidin-2-yl)amino)pyridin-3-yl)piperazin-1-yl)-4,4,4-trifluorobutanoyl)-2-azaspiro[3.3]heptan-6-yl)amino)-N-(5,6-dihydro-4H-pyrrolo[1,2-b]pyrazol-2-yl)-6-((methyl-d3)amino)nicotinamide]	≤ 10	–	–	–
CC(=O)c1c(C)c2cnc(Nc3ccc(N4CCN(C5CCN(C(=O)[C@H]6CC[C@H](Nc7cc(NC(C)C)ccc7C(=O)Nc7ccc(N(C)C)nn7)CC6)C5)CC4)cn3)nc2n(C2CCCC2)c1=O (stereo partly drawn) [CPD-527, 2-((trans-4-(3-(4-(6-((6-acetyl-8-cyclopentyl-5-methyl-7-oxo-7,8-dihydropyrido[2,3-d]pyrimidin-2-yl)amino)pyridin-3-yl)piperazin-1-yl)pyrrolidine-1-carbonyl)cyclohexyl)amino)-N-(6-(dimethylamino)pyridazin-3-yl)-4-(isopropylamino)benzamide]	≤ 10	–	–	–
